Assays:
Settings in all cases: incubation time: 72 h
CAL-120 [1] = experiment: drug sensitivity score (DSS), CellTiter-Blue viability (DSS (AUC-based score)); higher = stronger viability inhibition; extreme values may be limits of the assay
Description: (§1)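 DSRT with the CellTiter-Blue (resazurin reduction) viability readout, fluorescence 560/590 nm, 72 h incubation. Plates were normalised to DMSO and benzethonium chloride controls. DSS is computed from the area under the fitted dose-response curve (5 or 9 concentrations).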

CAL-85-1 [2] = experiment: as above
Description: as §1

SK-BR-3 [3] = experiment: as above
Description: as §1

MFM-223 [4] = experiment: as above
Description: as §1

HDQ-P1 = experiment: as above
Description: as §1

MDA-MB-231 [5] = experiment: as above
Description: as §1

MDA-MB-468 [6] = experiment: as above
Description: as §1

HCC1937 [7] = experiment: as above
Description: as §1

CAL-148 [8] = experiment: as above
Description: as §1

MDA-MB-436 [9] = experiment: as above
Description: as §1

MDA-MB-453 [10] = experiment: as above
Description: as §1

BT-549 [11] = experiment: as above
Description: as §1

HCC1143 [12] = experiment: as above
Description: as §1

CAL-120 [13] = experiment: normalised viability (% of control), CellTiter-Blue; higher = more viable cells (about 100 = DMSO control)
Description: (§2)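 DSRT, CellTiter-Blue viability, 72 h incubation. Signal is normalised to DMSO and benzethonium chloride controls. Value is the normalised response at dose 3.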

CAL-85-1 [14] = experiment: as above
Description: as §2

SK-BR-3 [15] = experiment: as above
Description: as §2

MFM-223 [16] = experiment: as above
Description: as §2

MDA-MB-231 [17] = experiment: as above
Description: as §2

Hs578T = experiment: as above
Description: as §2

MDA-MB-468 [18] = experiment: as above
Description: as §2

HCC1937 [19] = experiment: as above
Description: as §2

CAL-148 [20] = experiment: as above
Description: as §2

MDA-MB-436 [21] = experiment: as above
Description: as §2

DU-4475 = experiment: as above
Description: as §2

MDA-MB-453 [22] = experiment: as above
Description: as §2

BT-549 [23] = experiment: as above
Description: as §2

BT-474 = experiment: as above
Description: as §2

HCC1599 = experiment: as above
Description: as §2

HCC1143 [24] = experiment: as above
Description: as §2

SMILES	drug sensitivity score (CAL-120 [1])	drug sensitivity score (CAL-85-1 [2])	drug sensitivity score (SK-BR-3 [3])	drug sensitivity score (MFM-223 [4])	drug sensitivity score (HDQ-P1)	drug sensitivity score (MDA-MB-231 [5])	drug sensitivity score (MDA-MB-468 [6])	drug sensitivity score (HCC1937 [7])	drug sensitivity score (CAL-148 [8])	drug sensitivity score (MDA-MB-436 [9])	drug sensitivity score (MDA-MB-453 [10])	drug sensitivity score (BT-549 [11])	drug sensitivity score (HCC1143 [12])	normalised viability (CAL-120 [13]; 100 nM)	normalised viability (CAL-85-1 [14]; 10 nM)	normalised viability (SK-BR-3 [15]; 100 nM)	normalised viability (MFM-223 [16]; 100 nM)	normalised viability (MDA-MB-231 [17]; 100 nM)	normalised viability (Hs578T; 100 nM)	normalised viability (MDA-MB-468 [18]; 100 nM)	also measured
CN1CCC(COc2cnc(-c3cccc(Cn4nc(-c5cccc(C#N)c5)ccc4=O)c3)nc2)CC1	3.44	3.23	6.8	2.41	2.71	5.87	5.78	4.45	2.07	5.04	4.88	6.21	0	108%	94.4%	68.9%	96.9%	83.4%	76.3%	95%	normalised viability (HCC1937 [19]; 100 nM): 94%; normalised viability (CAL-148 [20]; 10 nM): 79.1%; normalised viability (MDA-MB-436 [21]; 100 nM): 92.3%; normalised viability (DU-4475; 10 nM): 98.3%; normalised viability (MDA-MB-453 [22]; 10 nM): 89.3%; normalised viability (BT-549 [23]; 100 nM): 81.5%; normalised viability (BT-474; 100 nM): 102%; normalised viability (HCC1599; 100 nM): 116%; normalised viability (HCC1143 [24]; 100 nM): 109%
CN(C)C/C=C/C(=O)Nc1cc2c(Nc3ccc(F)c(Cl)c3)ncnc2cc1O[C@H]1CCOC1 [Afatinib]	4.96	13.1	31.5	3.47	15.3	7.75	13	7.41	5.66	3.02	21.3	5.88	0	71.8%	84.7%	15.2%	84.8%	90.3%	84.2%	60.9%	normalised viability (HCC1937 [19]; 100 nM): 93.4%; normalised viability (CAL-148 [20]; 10 nM): 79.9%; normalised viability (MDA-MB-436 [21]; 100 nM): 84.7%; normalised viability (DU-4475; 10 nM): 95.1%; normalised viability (MDA-MB-453 [22]; 10 nM): 81.4%; normalised viability (BT-549 [23]; 100 nM): 104%; normalised viability (BT-474; 100 nM): 34.8%; normalised viability (HCC1599; 100 nM): 84.6%; normalised viability (HCC1143 [24]; 100 nM): 71%
CN1CC[C@H](c2c(O)cc(O)c3c(=O)cc(-c4ccccc4Cl)oc23)[C@H](O)C1 [Alvocidib]	17.8	20.8	23.9	19.2	19	19.6	17.6	19.1	20.3	15.6	19.6	17.2	17.9	68.2%	93.8%	46.9%	76.3%	82.9%	51.5%	91.5%	normalised viability (HCC1937 [19]; 100 nM): 69.4%; normalised viability (CAL-148 [20]; 10 nM): 85.4%; normalised viability (MDA-MB-436 [21]; 100 nM): 99.7%; normalised viability (DU-4475; 10 nM): 93%; normalised viability (MDA-MB-453 [22]; 10 nM): 98.1%; normalised viability (BT-549 [23]; 100 nM): 95.6%; normalised viability (BT-474; 100 nM): 96.4%; normalised viability (HCC1599; 100 nM): 82.4%; normalised viability (HCC1143 [24]; 100 nM): 69.7%
Nc1nc(Cl)nc2c1ncn2[C@H]1C[C@H](O)[C@@H](CO)O1 [Cladribine]	3.94	0	1.21	0	0	7.23	0	8.9	0.812	1.7	0	3.51	3.82								normalised viability (CAL-120 [13]; 10 nM): 97.4%; normalised viability (CAL-85-1 [14]; 1 nM): 107%; normalised viability (SK-BR-3 [15]; 10 nM): 95%; normalised viability (MFM-223 [16]; 10 nM): 85%; normalised viability (MDA-MB-231 [17]; 10 nM): 83%; normalised viability (Hs578T; 10 nM): 98.4%; normalised viability (MDA-MB-468 [18]; 10 nM): 104%; normalised viability (HCC1937 [19]; 10 nM): 84.8%; normalised viability (CAL-148 [20]; 1 nM): 97.4%; normalised viability (MDA-MB-436 [21]; 10 nM): 96.9%; normalised viability (DU-4475; 1 nM): 108%; normalised viability (MDA-MB-453 [22]; 1 nM): 112%; normalised viability (BT-549 [23]; 10 nM): 92%; normalised viability (BT-474; 10 nM): 118%; normalised viability (HCC1599; 10 nM): 105%; normalised viability (HCC1143 [24]; 10 nM): 85.5%
Nc1ccn([C@@H]2O[C@H](CO)[C@@H](O)[C@@H]2O)c(=O)n1 [Cytarabine]	7.69	3.04	8.27	0	0	7.18	6.23	13.9	19.2	4.91	6.62	7.65	6.95	82.4%	110%	81.2%	103%	86.3%	65.1%	95.1%	normalised viability (HCC1937 [19]; 100 nM): 76.3%; normalised viability (CAL-148 [20]; 10 nM): 86.6%; normalised viability (MDA-MB-436 [21]; 100 nM): 91.9%; normalised viability (DU-4475; 10 nM): 137%; normalised viability (MDA-MB-453 [22]; 10 nM): 109%; normalised viability (BT-549 [23]; 100 nM): 67.9%; normalised viability (BT-474; 100 nM): 101%; normalised viability (HCC1599; 100 nM): 110%; normalised viability (HCC1143 [24]; 100 nM): 86%
Cc1c2oc3c(C)ccc(C(=O)N[C@@H]4C(=O)N[C@H](C(C)C)C(=O)N5CCC[C@H]5C(=O)N(C)CC(=O)N(C)[C@@H](C(C)C)C(=O)O[C@@H]4C)c3nc-2c(C(=O)N[C@@H]2C(=O)N[C@H](C(C)C)C(=O)N3CCC[C@H]3C(=O)N(C)CC(=O)N(C)[C@@H](C(C)C)C(=O)O[C@@H]2C)c(N)c1=O [Dactinomycin]	30.8	30.9	28.9	20.1	28.5	30.8	31.4	21.8	34.1	27.9	30.5	32.8	27.4								normalised viability (CAL-120 [13]; 10 nM): 31.4%; normalised viability (CAL-85-1 [14]; 1 nM): 50.3%; normalised viability (SK-BR-3 [15]; 10 nM): 24.6%; normalised viability (MFM-223 [16]; 10 nM): 67.5%; normalised viability (MDA-MB-231 [17]; 10 nM): 27.3%; normalised viability (Hs578T; 10 nM): 23.3%; normalised viability (MDA-MB-468 [18]; 10 nM): 18.9%; normalised viability (HCC1937 [19]; 10 nM): 41.3%; normalised viability (CAL-148 [20]; 1 nM): 46.5%; normalised viability (MDA-MB-436 [21]; 10 nM): 46.4%; normalised viability (DU-4475; 1 nM): 32.1%; normalised viability (MDA-MB-453 [22]; 1 nM): 49.7%; normalised viability (BT-549 [23]; 10 nM): 17.8%; normalised viability (BT-474; 10 nM): 73.5%; normalised viability (HCC1599; 10 nM): 49.3%; normalised viability (HCC1143 [24]; 10 nM): 46.5%
